Assay results reported in US5654427A, “Indolocarbazole derivatives to treat a pathological condition of the prostate” (Kyowa Hakko Kogyo Co., Ltd., priority 1995, dated 1997).

Molecular target: T1, trkA (Rattus norvegicus, UniProt P35739)
T1 construct: are rat pheochromocytoma cells that bear trkA; host or cells: PC12 rat pheochromocytoma cells
Assay: inhibition of NGF-stimulated trk autophosphorylation (tyrosine phosphorylation) in PC12 cells, anti-phosphotyrosine Western blot; on trk 100 nM (inhibition of phosphorylation): key: +: Inhibited phosphorylation; -: Did not inhibit phosphorylation; on trk 500 nM (inhibition of phosphorylation): key: +: Inhibited phosphorylation; -: Did not inhibit phosphorylation
Type: cell-based
Conditions: for trk 100 nM (inhibition of phosphorylation) / phosphorylation response (FIG. 1, spot): 100 nM compound; for trk 100 nM (inhibition of phosphorylation) / trk 500 nM (inhibition of phosphorylation): NGF 50 ng/ml; for trk 500 nM (inhibition of phosphorylation): 500 nM compound; for phosphorylation response (FIG. 1, spot): NGF, Western blot FIG. 1
Description: Candidate compounds for the inhibition of prostate cell proliferation were selected according to their ability to inhibit the tyrosine kinase activity associated with the trks.
PC12 cells (ATCC #CRL1721) are rat pheochromocytoma cells that bear trkA and differentiate into sympathetic neurons when treated with NGF. […] Cells were incubated at 37° C. in a humidified atmosphere of 10% CO2 and 90% air. […] The cells in each culture were disrupted and cell lysates were prepared by standard techniques known to those skilled in the art. Each lysate was incubated with anti-trk antibody whereby immune complexes were formed. […] The immune complexes were collected on Protein A-Sepharose beads, separated by SDS-polyacrylamide gel electrophoresis (SDS-PAGE), and transferred to polyvinylidene difluoride (PVDF) membranes (Millipore Corp., Bedford, Mass.), using techniques well known to those skilled in the art. The membranes were incubated with anti-phosphotyrosine antibody, which binds to the tyrosine phosphorylated trks, but not to the un-phosphorylated form of trks. Proteins bound to anti-phosphotyrosine antibody were visualized with enhanced chemiluminescence (ECL, Amersham), and are shown as dark "spots" in FIG. 1.
Measurement of the autophosphorylation of trk provides a good index of trk tyrosine kinase activity, and thereby of trk stimulation.
Inhibition was indicated by the absence of a spot migrating with the trk marker shown at the left side of the figure. Partial inhibition was indicated by a spot of reduced size.

T1 sequence (P35739 33-799): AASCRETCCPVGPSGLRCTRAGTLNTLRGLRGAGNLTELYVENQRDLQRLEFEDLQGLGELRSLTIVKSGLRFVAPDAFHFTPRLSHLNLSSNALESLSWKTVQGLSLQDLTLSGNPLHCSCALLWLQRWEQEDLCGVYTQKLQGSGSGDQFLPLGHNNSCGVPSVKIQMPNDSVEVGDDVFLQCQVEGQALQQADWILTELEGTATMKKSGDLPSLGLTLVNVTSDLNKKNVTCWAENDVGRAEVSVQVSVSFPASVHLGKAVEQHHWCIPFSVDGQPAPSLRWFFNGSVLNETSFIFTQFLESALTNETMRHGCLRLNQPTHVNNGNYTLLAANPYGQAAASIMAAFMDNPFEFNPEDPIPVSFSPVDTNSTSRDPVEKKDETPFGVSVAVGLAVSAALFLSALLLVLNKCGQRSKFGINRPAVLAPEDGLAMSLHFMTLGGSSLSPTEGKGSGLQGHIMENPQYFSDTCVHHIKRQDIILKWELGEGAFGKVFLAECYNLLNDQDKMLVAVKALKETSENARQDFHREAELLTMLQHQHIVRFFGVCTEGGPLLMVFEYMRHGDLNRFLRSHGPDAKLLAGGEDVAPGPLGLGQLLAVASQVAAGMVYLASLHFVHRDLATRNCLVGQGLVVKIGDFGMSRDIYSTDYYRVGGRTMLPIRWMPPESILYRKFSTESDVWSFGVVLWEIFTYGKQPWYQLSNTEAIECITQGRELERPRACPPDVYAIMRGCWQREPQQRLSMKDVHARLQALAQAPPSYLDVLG

## COC(=O)C1(O)CC2OC1(C)n1c3ccccc3c3c4c(c5c6cc(CSCc7ccco7)ccc6n2c5c31)C(=O)NC4 (centres unmarked) [Compound I-68]
  trk 100 nM (inhibition of phosphorylation): -
  trk 500 nM (inhibition of phosphorylation): +

## CN(C)C(=O)C1(O)CC2OC1(C)n1c3ccccc3c3c4c(c5c6ccccc6n2c5c31)C(=O)NC4 (centres unmarked) [Compound I-25]
  trk 100 nM (inhibition of phosphorylation): +

## CC12OC(CC1(O)C(=O)NO)n1c3ccccc3c3c4c(c5c6ccccc6n2c5c31)CNC4=O (centres unmarked) [Compound I-26]
  trk 100 nM (inhibition of phosphorylation): +

## COC(=O)C1(O)CC2OC1(C)n1c3ccccc3c3c4c(c5c6cc(CSc7ncccn7)ccc6n2c5c31)C(=O)NC4 (centres unmarked) [Compound I-62]
  trk 100 nM (inhibition of phosphorylation): +
  trk 500 nM (inhibition of phosphorylation): +

## COC(=O)C1(O)CC2OC1(C)n1c3ccccc3c3c4c(c5c6cc(C[S+]([O-])c7ncccn7)ccc6n2c5c31)C(=O)NC4 (centres unmarked) [Compound I-63]
  trk 100 nM (inhibition of phosphorylation): -
  trk 500 nM (inhibition of phosphorylation): +

## COC(=O)C1(O)CC2OC1(C)n1c3ccccc3c3c4c(c5c6cc(C(Sc7ccccc7)Sc7ccccc7)ccc6n2c5c31)C(=O)NC4 (centres unmarked) [Compound I-58]
  trk 100 nM (inhibition of phosphorylation): -
  trk 500 nM (inhibition of phosphorylation): +

## CC12OC(CC1(O)CNC(=O)[C@@H](N)CO)n1c3ccccc3c3c4c(c5c6ccccc6n2c5c31)CNC4=O (some centres unmarked) [Compound I-18]
  trk 100 nM (inhibition of phosphorylation): +

## CC12OC(CC1(O)C=NNC(=N)N)n1c3ccccc3c3c4c(c5c6ccccc6n2c5c31)CNC4=O (centres unmarked) [Compound I-29]
  trk 100 nM (inhibition of phosphorylation): -
  trk 500 nM (inhibition of phosphorylation): +

## CCOCc1ccc2c(c1)c1c3c(c4c5ccccc5n5c4c1n2C1CC(O)(C(=O)OC)C5(C)O1)CNC3=O (centres unmarked) [Compound I-41]
  trk 100 nM (inhibition of phosphorylation): +
  trk 500 nM (inhibition of phosphorylation): +

## COC(=O)C1(O)CC2OC1(C)n1c3ccccc3c3c4c(c5c6cc(C)ccc6n2c5c31)C(=O)NC4 (centres unmarked) [Compound I-38]
  trk 100 nM (inhibition of phosphorylation): +

## COC(=O)C1(O)CC2OC1(C)n1c3ccccc3c3c4c(c5c6cc(C=NNc7ccccn7)ccc6n2c5c31)C(=O)NC4 (centres unmarked) [Compound I-70]
  trk 100 nM (inhibition of phosphorylation): +
  trk 500 nM (inhibition of phosphorylation): +

## COC(=O)C1(O)CC2OC1(C)n1c3ccccc3c3c4c(c5c6cc(C=NN7CCN(C)CC7)ccc6n2c5c31)C(=O)NC4 (centres unmarked) [Compound I-76]
  trk 500 nM (inhibition of phosphorylation): +

## CCNC(=O)OCc1ccc2c(c1)c1c3c(c4c5ccccc5n5c4c1n2C1CC(O)(C(=O)OC)C5(C)O1)CNC3=O (centres unmarked) [Compound I-35]
  trk 100 nM (inhibition of phosphorylation): +
  trk 500 nM (inhibition of phosphorylation): +

## CC12OC(CC1(O)C(=O)NCCO)n1c3ccc(Br)cc3c3c4c(c5c6cc(Br)ccc6n2c5c31)CNC4=O (centres unmarked) [Compound I-43]
  trk 100 nM (inhibition of phosphorylation): -
  trk 500 nM (inhibition of phosphorylation): +

## CC12OC(CC1(O)CNC(=O)[C@@H]1CCCN1)n1c3ccccc3c3c4c(c5c6ccccc6n2c5c31)CNC4=O (some centres unmarked) [Compound I-17]
  trk 100 nM (inhibition of phosphorylation): -
  trk 500 nM (inhibition of phosphorylation): +

## COC(=O)C1(O)CC2OC1(C)n1c3ccccc3c3c4c(c5c6cc(CSCCN(C)C)ccc6n2c5c31)C(=O)NC4 (centres unmarked) [Compound I-71]
  trk 100 nM (inhibition of phosphorylation): -
  trk 500 nM (inhibition of phosphorylation): +

## CC12OC(CC1(O)C(N)=O)n1c3ccccc3c3c4c(c5c6ccccc6n2c5c31)CNC4=O (centres unmarked) [Compound I-4]
  trk 100 nM (inhibition of phosphorylation): +
  trk 500 nM (inhibition of phosphorylation): +

## CC12OC(CC1(O)C(=O)N1CCOCC1)n1c3ccccc3c3c4c(c5c6ccccc6n2c5c31)CNC4=O (centres unmarked) [Compound I-11]
  trk 100 nM (inhibition of phosphorylation): +

## CC12OC(CC1(O)CO)n1c3ccc(Br)cc3c3c4c(c5c6ccccc6n2c5c31)CNC4=O (centres unmarked) [Compound I-36]
  trk 100 nM (inhibition of phosphorylation): +

## COC(=O)C1(O)CC2OC1(C)n1c3ccc(Cl)cc3c3c4c(c5c6cc(Cl)ccc6n2c5c31)C(=O)NC4 (centres unmarked) [Compound I-44]
  trk 100 nM (inhibition of phosphorylation): -
  trk 500 nM (inhibition of phosphorylation): +

## CC12OC(CC1(O)C=NNC1=NCCN1)n1c3ccccc3c3c4c(c5c6ccccc6n2c5c31)CNC4=O (centres unmarked) [Compound I-30]
  trk 100 nM (inhibition of phosphorylation): -
  trk 500 nM (inhibition of phosphorylation): +

## COC(=O)Nc1ccc2c(c1)c1c3c(c4c5ccccc5n5c4c1n2C1CC(O)(C(=O)OC)C5(C)O1)CNC3=O (centres unmarked) [Compound I-37]
  trk 100 nM (inhibition of phosphorylation): +

## CC12OC(CC1(O)CNC(=O)[C@@H](N)CCCCN)n1c3ccccc3c3c4c(c5c6ccccc6n2c5c31)CNC4=O (some centres unmarked) [Compound I-57]
  trk 100 nM (inhibition of phosphorylation): +

## COC(=O)C1(O)CC2OC1(C)n1c3ccccc3c3c4c(c5c6cc(C7SCCS7)ccc6n2c5c31)C(=O)NC4 (centres unmarked) [Compound I-59]
  trk 100 nM (inhibition of phosphorylation): -
  trk 500 nM (inhibition of phosphorylation): +

## COC(=O)C1(OC)CC2OC1(C)n1c3ccccc3c3c4c(c5c6ccccc6n2c5c31)C(=O)NC4 (centres unmarked) [Compound I-53]
  trk 100 nM (inhibition of phosphorylation): +

## CC12OC(CC1(O)C[S+]([O-])c1ccccn1)n1c3ccccc3c3c4c(c5c6ccccc6n2c5c31)CNC4=O (centres unmarked) [Compound I-40]
  trk 100 nM (inhibition of phosphorylation): +

## COC(=O)C1(O)CC2OC1(C)n1c3ccccc3c3c4c(c5c6cc(CSc7nc8ccccc8[nH]7)ccc6n2c5c31)C(=O)NC4 (centres unmarked) [Compound I-67]
  trk 100 nM (inhibition of phosphorylation): +
  trk 500 nM (inhibition of phosphorylation): +

## CC(=O)OC1(C(=O)NCC(C)C)CC2OC1(C)n1c3ccccc3c3c4c(c5c6ccccc6n2c5c31)C(=O)NC4 (centres unmarked) [Compound I-55]
  trk 100 nM (inhibition of phosphorylation): +

## CC(=O)OCC1(O)CC2OC1(C)n1c3ccccc3c3c4c(c5c6ccccc6n2c5c31)C(=O)NC4 (centres unmarked) [Compound I-6]
  trk 100 nM (inhibition of phosphorylation): +

## COC(=O)C1(O)CC2OC1(C)n1c3ccccc3c3c4c(c5c6cc(C=NNC7=NCCN7)ccc6n2c5c31)C(=O)NC4 (centres unmarked) [Compound I-61]
  trk 100 nM (inhibition of phosphorylation): -
  trk 500 nM (inhibition of phosphorylation): +

## COC(=O)CC1(O)CC2OC1(C)n1c3ccccc3c3c4c(c5c6ccccc6n2c5c31)C(=O)NC4 (centres unmarked) [Compound I-31]
  trk 100 nM (inhibition of phosphorylation): +

## COC(=O)C1(O)CC2OC1(C)n1c3ccccc3c3c4c(c5c6cc(NC(=O)Nc7ccccc7)ccc6n2c5c31)C(=O)NC4 (centres unmarked) [Compound I-27]
  trk 100 nM (inhibition of phosphorylation): -
  trk 500 nM (inhibition of phosphorylation): +

## COC(=O)C1(O)CC2OC1(C)n1c3ccccc3c3c4c(c5c6cc(CSc7ccccn7)ccc6n2c5c31)C(=O)NC4 (centres unmarked) [Compound I-60]
  trk 100 nM (inhibition of phosphorylation): -
  trk 500 nM (inhibition of phosphorylation): +

## CCCNC(=O)C1(O)CC2OC1(C)n1c3ccccc3c3c4c(c5c6ccccc6n2c5c31)C(=O)NC4 (centres unmarked) [Compound I-10]
  trk 100 nM (inhibition of phosphorylation): +

## COC(=O)C1(O)CC2OC1(C)n1c3ccc(Br)cc3c3c4c(c5c6cc(Br)ccc6n2c5c31)C(=O)NC4 (centres unmarked) [Compound I-39]
  trk 100 nM (inhibition of phosphorylation): +
  phosphorylation response (FIG. 1, spot): somewhat diminished (a smaller spot was seen)

## COC(=O)C1(O)CC2OC1(C)n1c3ccccc3c3c4c(c5c6cc(Br)ccc6n2c5c31)C(=O)NC4 (centres unmarked) [Compound I-23]
  trk 100 nM (inhibition of phosphorylation): -
  trk 500 nM (inhibition of phosphorylation): +

## CCNC(=O)C1(O)CC2OC1(C)n1c3ccccc3c3c4c(c5c6ccccc6n2c5c31)C(=O)NC4 (centres unmarked) [Compound I-9]
  trk 100 nM (inhibition of phosphorylation): +
  phosphorylation response (FIG. 1, spot): absent (no spot seen)

## COC(=O)C1(O)CC2OC1(C)n1c3ccccc3c3c4c(c5c6cc(C=NN(C)C)ccc6n2c5c31)C(=O)NC4 (centres unmarked) [Compound I-75]
  trk 500 nM (inhibition of phosphorylation): +

## CC12OC(CC13CNC(=O)O3)n1c3ccccc3c3c4c(c5c6ccccc6n2c5c31)CNC4=O (centres unmarked) [Compound I-7]
  trk 100 nM (inhibition of phosphorylation): +
  phosphorylation response (FIG. 1, spot): absent (no spot seen)

## CC1(C)OCC2(CC3OC2(C)n2c4ccccc4c4c5c(c6c7ccccc7n3c6c42)C(=O)NC5)O1 (centres unmarked) [Compound I-13]
  trk 100 nM (inhibition of phosphorylation): +
  trk 500 nM (inhibition of phosphorylation): +

## CCNC(=O)Nc1ccc2c(c1)c1c3c(c4c5ccccc5n5c4c1n2C1CC(O)(C(=O)OC)C5(C)O1)CNC3=O (centres unmarked) [Compound I-34]
  trk 100 nM (inhibition of phosphorylation): -
  trk 500 nM (inhibition of phosphorylation): +

## CCSCc1ccc2c(c1)c1c3c(c4c5cc(CO)ccc5n5c4c1n2C1CC(O)(C(=O)OC)C5(C)O1)CNC3=O (centres unmarked) [Compound I-65]
  trk 100 nM (inhibition of phosphorylation): -
  trk 500 nM (inhibition of phosphorylation): +
